The record followed here is patent publication US20110065754A1 (priority 2009, published 2011).

The test system of data set [1] is Ebola Zaire Virus. It counts as cell-based, Ebola virus (strain Zaire).
For data set [2], the system named is Marburg Ci67. It counts as cell-based, Marburg virus.
The conditions of data set [3]: mouse, in vivo.
Data set [4] concerns Ebola virus (strain Zaire). Also on record: species or system Balb/c mice. Conditions: mouse, in vivo.
For data set [5], the system named is Ebola Zaire. Also on record: species or system C57Bl/6 mice. Conditions: mouse, in vivo.
Data set [6] has as its system Marburg Ravn. On the set-up: species or system Balb/c mice. Conditions: mouse, in vivo.
The conditions of data set [7]: mouse.

Turning to `CCCOCCCCCCN1C[C@H](O)[C@@H](O)[C@H](O)[C@H]1CO` [Compound N7-O-DNJ, N-(7-Oxadecyl)deoxynojirimycin], the IC50 (commonly the concentration needed to halve the response being measured) in data set [1] is 20 µM; in data set [2] it was 50 µM.

For the compound `COCCCCCCCCCN1C[C@H](O)[C@@H](O)[C@H](O)[C@H]1CO` [Compound N9-DNJ, N-(9-Methoxynonyl) deoxynojirimycin], the IC50 in data set [1] came out at 16 µM; in data set [2], 32 µM. Moreover, the “weight loss compared to vehicle only control” value in data set [3] is listed as “did not show any significant signs of weight loss”.

With `[N-]=[N+]=Nc1ccc(NCCCCCCN2C[C@H](O)[C@@H](O)[C@H](O)[C@H]2CO)c([N+](=O)[O-])c1` [NAP-DNJ, N—(N-{4′-azido-2′-nitrophenyl}-6-aminohexyl)deoxynojirimycin], the IC50 in data set [1] came out at 6 µM. In addition, the IC50 in data set [2] was 6 µM. For the same compound, the survival rate in data set [4] is given as 71%. Besides, in data set [5], the “protection against Ebola virus (survival)” value is given as “significant protection”. In data set [6], the “protection against Marburg virus (survival)” value is recorded as “protection”. Further, in data set [3], the “reversibility of symptoms after end of treatment” value is listed as “symptoms promptly ceased when treatment was done”, the weight loss entry was “did not show signs of weight loss” and the “weight loss compared to vehicle only control” value is reported as “did not show any significant signs of weight loss”. The “weight loss or adverse effects in vivo” value in data set [7] was “no weight loss or adverse effects observed”.

Take `CCCCN1C[C@H](O)[C@@H](O)[C@H](O)[C@H]1CO` [NB-DNJ, N-Butyl deoxynojirimycin]: the IC50 in data set [1] was 32 µM. The “weight loss compared to vehicle only control” value in data set [3] is given as “did not show any significant signs of weight loss”.

Compound `CCCCCCCCCN1C[C@H](O)[C@@H](O)[C@H](O)[C@H]1CO` [NN-DNJ, N-Nonyl deoxynojirimycin] gave a half-maximal inhibitory concentration (IC50) in data set [1] of 12 µM. In other words, the double-digit micromolar range.
